In patent US11160784B1, “Treatment of brain metastases using organonitro compound combination therapy” (EpicentRx, Inc., priority 2015, dated 2021):

How the values were obtained:
brain metastases [1] = experiment: Treatment of two human patients suffering from brain metastases with ABDNAZ in combination with whole brain radiation therapy; assay type: in vivo
Experimental: Two human patients suffering from brain metastases were treated according to the protocol described in Part I below using ABDNAZ in combination with whole brain radiation therapy.
(§1) ABDNAZ was administered intravenously in a formulation containing ABDNAZ, polyethylene glycol having a number-average molecular weight of 400 g/mol (PEG-400), water for injection, and NN-dimethylacetamide. A single dosage of ABDNAZ was 5 mg/m^2. During radiation therapy, (i) subjects were treated in the supine position, (ii) adequate immobilization and reproducibility of position was ensured using thermoplastic mask, (iii) the target volume included the whole brain, per the treating radiation oncologist, (iv) the lens of the eye was excluded from the beam using shielding or by beam collimation, (v) the dose of radiation is specified at central axis at mid-plane, (vi) whole brain radiotherapy was delivered with a daily fraction size of 3.0 Gy per fraction given 5 days a week for a total dose of 30 Gy, and (vii) radiation therapy was delivered using photon beam energies of 6 MV and an opposed lateral technique, where all fields are treated during each treatment session.

brain metastases [2] = experiment: Treatment of thirteen additional human patients suffering from brain metastases with ABDNAZ in combination with whole brain radiation therapy; assay type: in vivo; conditions: ABDNAZ 1.25 to 8.4 mg/m^2 IV + WBRT 30 Gy
Experimental: Thirteen human patients suffering from brain metastases were treated according to the protocol described in Part I below using ABDNAZ in combination with whole brain radiation therapy.
as §1, with “intravenously at a dosage” for “intravenously”, “the range” for “a formulation containing ABDNAZ, polyethylene glycol having a number-average molecular weight”, “1.25 mg/m^2 to 8.4” for “400 g/mol (PEG-400), water for injection, and NN-dimethylacetamide. A single dosage of ABDNAZ was 5”

SCCVII tumor = experiment: Impact of time between administration of ABDNAZ and radiation therapy on tumor growth delay; assay type: in vivo, mice; conditions: ABDNAZ 15 mg/kg IP single dose at -24 h, -2 h, concurrent, +2 h or +24 h; single local 7 Gy; FIG. 1
Experimental: The impact of the time interval between administration of ABDNAZ and radiation therapy on tumor growth delay was evaluated in mice having a SCCVII tumor. Experimental procedures and results are described below.
Mice having a SCCVII tumor were treated with radiation therapy and ABDNAZ, where the length of time between administration of radiation therapy and ABDNAZ was varied. Radiation therapy was administered as a single local dose of 7 Gy of radiation. ABDNAZ was dosed in 5 groups of mice at 15 mg/kg IP as a single dose at one of the following time points: 24 hours prior to radiation therapy, 2 hours prior to radiation therapy, concurrent with radiation therapy, 2 hours after radiation therapy, or 24 hours after radiation therapy.

[3] = first patient, four weeks after completion of ABDNAZ + WBRT

O=C(CBr)N1CC([N+](=O)[O-])([N+](=O)[O-])C1 [ABDNAZ] was tested, and the “k^trans by dynamic contrast-enhanced brain MRI” value (brain metastases [1]; first patient (melanoma brain metastases), 24 hours after first dose of ABDNAZ 5 mg/m^2 IV) was “decrease in k^trans in 4 of 5 lesions”, the “size of new lesion discovered” value (brain metastases [1]; first patient, 4 months after completion of ABDNAZ + WBRT, possibly seeding from systemic disease) was 5 mm and the tolerability (brain metastases [1]; first patient, ABDNAZ 5 mg/m^2 IV + WBRT 30 Gy) was “well-tolerated with mild, transient infusion site pain, and without any signs of systemic or neurologic toxicity”. For the same compound, the visual symptoms (brain metastases [1]; first patient, by the end of treatment with ABDNAZ + WBRT) was “improved visual symptoms with near resolution of visual field-deficit”, the “edema associated with lesions” value (brain metastases [1]; first patient, four months after completion of ABDNAZ + WBRT) was “decrease in associated edema of all lesions” and the “physical function, Barthel ADL index” value (brain metastases [1]; [3]) was “unchanged from baseline”. The “size of brain lesions by contrasted brain MRI” value (brain metastases [1]; [3]) was “decrease in the size of the largest right and left occipital masses”, the visual symptoms (brain metastases [1]; first patient, within 48 hours of receiving the first dose of radiation therapy, ABDNAZ 5 mg/m^2 IV + WBRT) was “began to improve” and the “number of sub-centimeter metastases with complete disappearance” value (brain metastases [1]; second patient, 3 months after end of ABDNAZ + WBRT) was 3. The “lesion response on serial re-imaging” value (brain metastases [1]; second patient, at least 18 brain metastases at baseline, ABDNAZ + WBRT) was “response in all 18 visualized lesions”, the infusion site pain (brain metastases [1]; second patient, during treatment) was “no significant infusion site pain” and the “k^trans by DCE-MRI” value (brain metastases [1]; second patient, largest evaluable lesion, 24 hours after first administration of ABDNAZ) was “slight reduction in k^trans”. The “physical function, Barthel ADL index” value (brain metastases [1]; second patient, one month after end of ABDNAZ + WBRT) was “unchanged from baseline”, the adverse events (brain metastases [2]) was “No adverse events were observed” and the “patients with decrease of at least 30% in sum of longest diameters of target lesions and absolute decrease of at least 5 mm in at least one target lesion” value (brain metastases [2]) was “Approximately 50%”. The “tumor growth delay versus time interval between ABDNAZ and radiation therapy” value (SCCVII tumor) was “Maximum tumor growth delay occurred when ABDNAZ was administered minutes before or concomitant with radiation therapy”.
